ChEMBL document CHEMBL1932926, “New substituted C-19-andrographolide analogues with potent cytotoxic activities” (2012)

Legend:
Type in all cases: functional
Details in all cases: read-out: ED50 (the source's name)
Lu1 = experiment: Cytotoxicity against human Lu1 cells by SRB assay
KB = experiment: Cytotoxicity against human KB cells by SRB assay
MCF7 = experiment: Cytotoxicity against human MCF7 cells by SRB assay
[1] = Cytotoxicity against rat ASK cells by SRB assay
Col2 = experiment: Cytotoxicity against human Col2 cells by SRB assay
P388 = experiment: Cytotoxicity against mouse P388 cells by SRB assay

| Compound | EC50 (Lu1) | EC50 (KB) | EC50 (MCF7) | EC50 [1] | EC50 (Col2) | EC50 (P388) |
| --- | --- | --- | --- | --- | --- | --- |
| C=C1CC[C@@H]2[C@](C)(CO[Si](C)(C)C(C)(C)C)[C@H](O)CC[C@@]2(C)[C@@H]1C/C=C1/C(=O)OC[C@H]1O | 48.8 µM | 40.7 µM | 47 µM | 15.5 µM | 17.1 µM | 8.39 µM |
| C=C1CC[C@@H]2[C@](C)(CO[Si](C)(C)C(C)(C)C)[C@H](OC(C)=O)CC[C@@]2(C)[C@@H]1C/C=C1/C(=O)OC[C@H]1O | 9.62 µM | 11.2 µM | 9.79 µM | 8.17 µM | 11.3 µM | 1.71 µM |
| C=C1CC[C@@H]2[C@](C)(CO[Si](C)(C)C(C)(C)C)[C@H](O)CC[C@@]2(C)[C@@H]1C/C=C1/C(=O)OC[C@H]1OC(C)=O | 10.4 µM | 10.7 µM | 10.4 µM | 3.41 µM | 8.94 µM | 1.03 µM |
| C=C1CC[C@@H]2[C@](C)(CO[Si](C)(C)C(C)(C)C)[C@H](OC(C)=O)CC[C@@]2(C)[C@@H]1C/C=C1/C(=O)OC[C@H]1OC(C)=O | 2.92 µM | 3.62 µM | 2.84 µM | 1.22 µM | 2.23 µM | 0.34 µM |
| C=C1CC[C@@H]2[C@](C)(CO[Si](C(C)C)(C(C)C)C(C)C)[C@H](O)CC[C@@]2(C)[C@@H]1C/C=C1/C(=O)OC[C@H]1O | 3.01 µM | 2.73 µM | 2.88 µM | 2.85 µM | 2.73 µM | 0.88 µM |
| C=C1CC[C@@H]2[C@](C)(CO[Si](C(C)C)(C(C)C)C(C)C)[C@H](OC(C)=O)CC[C@@]2(C)[C@@H]1C/C=C1/C(=O)OC[C@H]1OC(C)=O | 18.8 µM | 7.39 µM | 14 µM | 7.56 µM | 13.6 µM | 1.41 µM |
| C=C1CC[C@@H]2[C@](C)(CO[Si](c3ccccc3)(c3ccccc3)C(C)(C)C)[C@H](O)CC[C@@]2(C)[C@@H]1C/C=C1/C(=O)OC[C@H]1O | 11.5 µM | 11.1 µM | 8.15 µM | 5.54 µM | 9.65 µM | 0.68 µM |
| C=C1CC[C@@H]2[C@](C)(CO[Si](c3ccccc3)(c3ccccc3)C(C)(C)C)[C@H](OC(C)=O)CC[C@@]2(C)[C@@H]1C/C=C1/C(=O)OC[C@H]1O | 10.9 µM | 9.86 µM | 7.53 µM | 10.5 µM | 3.8 µM | 0.5 µM |
| C=C1CC[C@@H]2[C@](C)(CO[Si](c3ccccc3)(c3ccccc3)C(C)(C)C)[C@H](O)CC[C@@]2(C)[C@@H]1C/C=C1/C(=O)OC[C@H]1OC(C)=O | 11.9 µM | 10.5 µM | 9.63 µM | 12 µM | 10.7 µM | 0.33 µM |
| C=C1CC[C@@H]2[C@](C)(CO[Si](c3ccccc3)(c3ccccc3)C(C)(C)C)[C@H](OC(C)=O)CC[C@@]2(C)[C@@H]1C/C=C1/C(=O)OC[C@H]1OC(C)=O | 52.9 µM | 29 µM | 45.7 µM | 32.8 µM | 12.3 µM | 1.67 µM |
| C=C1CC[C@@H]2[C@](C)(CO)[C@H](OC(C)=O)CC[C@@]2(C)[C@@H]1C/C=C1/C(=O)OC[C@H]1O | 30.6 µM | 35.6 µM | 26.4 µM | 58.1 µM | 27.2 µM | 4.78 µM |
| C=C1CC[C@@H]2[C@](C)(COC(C)=O)[C@H](O)CC[C@@]2(C)[C@@H]1C/C=C1/C(=O)OC[C@H]1O | 14 µM | 15.3 µM | 18.2 µM | 16.7 µM | 12.9 µM | 2.04 µM |
| C=C1CC[C@@H]2[C@](C)(COC(C)=O)[C@H](OC(C)=O)CC[C@@]2(C)[C@@H]1C/C=C1/C(=O)OC[C@H]1O | 34.7 µM | 35.2 µM | 19.7 µM | 22.4 µM | 15.3 µM | 2.65 µM |
| C=C1CC[C@@H]2[C@](C)(COC(C)=O)[C@H](O)CC[C@@]2(C)[C@@H]1C/C=C1/C(=O)OC[C@H]1OC(C)=O | 19.8 µM | 26.4 µM | 18.5 µM | 16.3 µM | 15.2 µM | 1.62 µM |
| C=C1CC[C@@H]2[C@](C)(COC(C)=O)[C@H](OC(C)=O)CC[C@@]2(C)[C@@H]1C/C=C1/C(=O)OC[C@H]1OC(C)=O | 12.4 µM | 11.6 µM | 10 µM | 11.4 µM | 10.8 µM | 1.4 µM |
| C=C1CC[C@@H]2[C@](C)(CO)[C@H](OC(C)=O)CC[C@@]2(C)[C@@H]1C/C=C1/C(=O)OC[C@H]1OC(C)=O | 8.75 µM | 11.7 µM | 11 µM | 11.5 µM | 10.2 µM | 0.69 µM |
| C=C1CC[C@@H]2[C@](C)(COC(c3ccccc3)(c3ccccc3)c3ccccc3)[C@H](O)CC[C@@]2(C)[C@@H]1C/C=C1/C(=O)OC[C@H]1O | 0.88 µM | 2.42 µM | 2.72 µM | 2.86 µM | 2.73 µM | 0.45 µM |
| C=C1CC[C@@H]2[C@](C)(COC(c3ccccc3)(c3ccccc3)c3ccccc3)[C@H](OC(C)=O)CC[C@@]2(C)[C@@H]1C/C=C1/C(=O)OC[C@H]1OC(C)=O | 8.37 µM | 9.77 µM | 22.7 µM | 15.3 µM | 22.8 µM | 1.92 µM |
| C=C1CC[C@@H]2[C@]3(C)COC(C)(C)O[C@@H]3CC[C@@]2(C)[C@@H]1C/C=C1/C(=O)OC[C@H]1O | 53 µM | 66.5 µM | 42.8 µM | 52.2 µM | 39.8 µM | 3.78 µM |
| C=C1CC[C@@H]2[C@](C)(CO)[C@H](O)CC[C@@]2(C)[C@@H]1C/C=C1/C(=O)OC[C@H]1O [ANDROGRAPHOLIDE] | 13 µM | 27.4 µM | 15.4 µM | 16.2 µM | 13.6 µM | 2.25 µM |
| Cc1c2ccncc2c(C)c2c1[nH]c1ccccc12 [ELLIPTECINE] | 1.62 µM | 2.46 µM | 2.71 µM | 3.56 µM | 2.72 µM | 2.44 µM |
